Key:
Test in all cases: relative viability (nuclei count vs DMSO), 5 days (fraction); higher = more cells survive
[1] = compound: CC(C)C[C@H](NC(=O)[C@H](Cc1ccccc1)NC(=O)c1cnccn1)B(O)O [Bortezomib] + COc1cc2c(Oc3ccc(NC(=O)C4(C(=O)Nc5ccc(F)cc5)CC4)cc3F)ccnc2cc1OCCCN1CCOCC1 [Foretinib] (partner 0.25 µM)
How it was run: (§1)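 Lung cancer cell lines were pin-tool dosed in 1536-well plates on the day after seeding, with either a lone drug or a fixed anchor-drug dose plus five library-drug doses (not always all listed) in √10 steps. Nuclei were counted on 4× images after 5 days. Relative viability is the ratio of treated-well to vehicle-well nuclei counts, with each value a median of duplicate plates.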

[2] = compound: CC1=CC(=NN1)NC2=CC(=NC(=N2)/C=C/C3=CC=CC=C3)N4CCN(CC4)C + CC(C)C[C@H](NC(=O)[C@H](Cc1ccccc1)NC(=O)c1cnccn1)B(O)O [Bortezomib] (partner 0.002 µM)
How it was run: as §1

[3] = compound: COC1=CC(c2cc3ccccc3[nH]2)=N/C1=C\c1[nH]c(C)cc1C [Obatoclax] + CC(=O)Nc1cccc(-n2c(=O)n(C3CC3)c(=O)c3c(Nc4ccc(I)cc4F)n(C)c(=O)c(C)c32)c1 [Trametinib] (partner 0.02 µM)
How it was run: as §1

[4] = compound: COC1=CC(c2cc3ccccc3[nH]2)=N/C1=C\c1[nH]c(C)cc1C [Obatoclax] + COc1cc2c(Oc3ccc(NC(=O)C4(C(=O)Nc5ccc(F)cc5)CC4)cc3F)ccnc2cc1OCCCN1CCOCC1 [Foretinib] (partner 0.25 µM)
How it was run: as §1

With NCI-H650 the relative viability ([1]; first compound 0.000632 µM) was 1.08, the relative viability ([1]; first compound 0.002 µM) was 0.847 and the relative viability ([1]; first compound 0.006325 µM) was 0.4. The relative viability ([1]; first compound 0.02 µM) was 0.173, the relative viability ([2]; first compound 0.08 µM) was 0.839 and the relative viability ([2]; first compound 0.253 µM) was 1.01. The relative viability ([2]; first compound 0.8 µM) was 0.673, the relative viability ([2]; first compound 2.53 µM) was 0.364 and the relative viability ([2]; first compound 8 µM) was 0.187. The relative viability ([3]; first compound 0.01 µM) was 0.888, the relative viability ([3]; first compound 0.03162 µM) was 1.02 and the relative viability ([3]; first compound 0.3162 µM) was 0.373. The relative viability ([3]; first compound 1 µM) was 0.625, the relative viability ([4]; first compound 0.01 µM) was 1.01 and the relative viability ([4]; first compound 0.03162 µM) was 0.986. The relative viability ([4]; first compound 0.3162 µM) was 0.717 and the relative viability ([4]; first compound 1 µM) was 0.38.

Source: the supplement of paper PMC10307832
